{
  "source": "patent US9738932B2",
  "about": "“Biomarkers for cardiovascular side-effects induced by cox-2 inhibitory compounds” (FIRALIS SAS, priority 2005, dated 2017)",
  "format_in_all_cases": "in vivo, cynomolgus monkey (Macaca fascicularis)",
  "key": {"[1]": {"tested_on": "veins (vascular tissue)", "assay": "Histopathological evaluation of tissues of treated monkeys", "details": "animal A60055, 50 mg/kg/day oral gavage, two weeks", "excerpt": "Administration of compounds.\nGene expression profiles."}, "[2]": {"tested_on": "INFγ", "assay": "ELISA of INFγ protein in monkey serum and plasma", "details": "monkey #A60055", "excerpt": "FIG. 7. ELISA confirmation of INFγ protein level in monkey serum and plasma samples.\n(§1) These peripheral biomarkers might allow safe use of cox-2 inhibitory compounds in clinics and selection of cox-2 inhibitory follow-up compounds without cardiovascular toxicity."}, "[3]": {"tested_on": "CXCL10 (IP10)", "assay": "ELISA of CXCL10 (IP10) protein in monkey serum and plasma", "details": "monkey #A60055", "excerpt": "FIG. 6. ELISA confirmation of CXCL10 (IP10) protein level in monkey serum samples.\nas §1"}, "[4]": {"tested_on": "INFγ inducible proteins in serum and plasma", "assay": "Rules-Based Medicine (RBM) human MAP multiplex protein profiling in serum and plasma", "details": "monkey #A60055", "excerpt": "To obtain biomarkers predicting cardiovascular adverse effect of tested compounds/drugs, expression levels of proteins have been analysed in cynomolgus monkey serum and plasma from the present analysis using human Multi-Analyte Profile (MAP) Technology. Human MAP could be used to measure protein levels of more than 80 antigens in monkey serum and plasma (Rules-Based Medicine Inc (RBM®), Austin, Tex. USA).\nSoluble proteins present in serum and plasma of the same monkeys have been measured using a multiplex assay produced by Rules-Based Medicine (RBM®) of Texas."}},
  "note": "“Also recorded” adds a separate entry of the source.",
  "data": [
    {"smiles": "CS(=O)(=O)c1ccc(C2=C(c3ccccc3)C(=O)OC2)cc1", "note": "[Vioxx®, rofecoxib]", "values": [
      {"measurement": "histopathological vascular findings", "setting": "[1]", "result": "focal vascular necrosis in the veins; also recorded: clear sign of vasculitis in veins"},
      {"measurement": "INFγ protein expression by ELISA", "setting": "[2]", "result": "Increased expression"},
      {"measurement": "CXCL10 chemokine protein expression by ELISA", "setting": "[3]", "result": "Increased expression"},
      {"measurement": "level of INFγ inducible proteins in serum and plasma (multiplex assay)", "setting": "[4]", "result": "increased level"}
    ]}
  ]
}
